Tests used:
Test in all cases: KINOMEscan competition binding
Details in all cases: compound 10.0 µM
[1] = system: ABL1 (human), P00519 [F317I]
[2] = system: ABL1 (human), P00519 [F317L]
NEK10 (human) = NEK10 (human) (UniProt Q6ZWH5)
WNK1 (human) = WNK1 (human) (UniProt Q9H4A3)
RPS6KA3 KD2 (human) = RPS6KA3 KD2 (human) (UniProt P51812)
SGK1 (human) = SGK1 (human) (UniProt O00141)
SGK1 (human), sequence (O00141 whole entry, looked up): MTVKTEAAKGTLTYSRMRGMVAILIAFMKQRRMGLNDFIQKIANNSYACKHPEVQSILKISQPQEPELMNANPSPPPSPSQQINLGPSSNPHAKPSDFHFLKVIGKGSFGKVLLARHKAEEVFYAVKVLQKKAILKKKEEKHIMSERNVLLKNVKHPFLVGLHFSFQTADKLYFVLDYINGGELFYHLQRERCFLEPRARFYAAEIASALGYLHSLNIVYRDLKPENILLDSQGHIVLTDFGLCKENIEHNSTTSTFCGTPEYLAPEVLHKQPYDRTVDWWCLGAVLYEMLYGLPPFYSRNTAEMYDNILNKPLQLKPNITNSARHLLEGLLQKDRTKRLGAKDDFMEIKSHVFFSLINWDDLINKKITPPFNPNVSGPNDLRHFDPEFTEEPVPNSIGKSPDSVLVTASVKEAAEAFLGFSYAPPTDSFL

ABL1 (human), P00519 [F317L], sequence (P00519 whole entry F317L, looked up): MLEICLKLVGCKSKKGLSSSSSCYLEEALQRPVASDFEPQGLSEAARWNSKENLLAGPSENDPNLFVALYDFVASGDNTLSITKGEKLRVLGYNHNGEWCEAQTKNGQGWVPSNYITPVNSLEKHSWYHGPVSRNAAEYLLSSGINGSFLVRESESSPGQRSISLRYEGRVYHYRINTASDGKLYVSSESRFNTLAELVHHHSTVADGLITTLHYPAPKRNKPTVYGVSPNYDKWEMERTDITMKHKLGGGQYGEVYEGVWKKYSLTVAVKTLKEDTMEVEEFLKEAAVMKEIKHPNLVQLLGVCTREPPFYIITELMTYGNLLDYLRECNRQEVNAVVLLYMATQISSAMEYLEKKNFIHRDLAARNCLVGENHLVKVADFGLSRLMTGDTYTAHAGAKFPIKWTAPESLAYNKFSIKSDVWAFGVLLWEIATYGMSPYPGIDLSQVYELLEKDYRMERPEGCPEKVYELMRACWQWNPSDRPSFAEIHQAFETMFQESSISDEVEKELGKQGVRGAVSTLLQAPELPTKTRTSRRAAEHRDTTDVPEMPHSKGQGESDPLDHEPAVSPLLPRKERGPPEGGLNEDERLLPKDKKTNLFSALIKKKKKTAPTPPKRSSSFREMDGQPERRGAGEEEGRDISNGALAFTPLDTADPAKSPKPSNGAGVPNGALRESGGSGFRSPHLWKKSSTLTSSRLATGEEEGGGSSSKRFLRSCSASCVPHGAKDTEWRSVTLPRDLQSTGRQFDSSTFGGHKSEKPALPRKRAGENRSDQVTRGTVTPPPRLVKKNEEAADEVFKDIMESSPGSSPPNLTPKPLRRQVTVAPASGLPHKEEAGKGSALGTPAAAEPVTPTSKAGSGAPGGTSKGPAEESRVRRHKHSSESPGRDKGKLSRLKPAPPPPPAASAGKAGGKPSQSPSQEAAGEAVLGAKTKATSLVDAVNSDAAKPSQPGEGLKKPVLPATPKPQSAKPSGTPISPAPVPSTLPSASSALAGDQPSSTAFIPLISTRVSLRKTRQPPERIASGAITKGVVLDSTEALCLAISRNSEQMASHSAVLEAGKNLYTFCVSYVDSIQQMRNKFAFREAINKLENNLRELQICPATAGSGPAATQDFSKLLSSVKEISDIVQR
RPS6KA3 KD2 (human), sequence (P51812 whole entry, looked up): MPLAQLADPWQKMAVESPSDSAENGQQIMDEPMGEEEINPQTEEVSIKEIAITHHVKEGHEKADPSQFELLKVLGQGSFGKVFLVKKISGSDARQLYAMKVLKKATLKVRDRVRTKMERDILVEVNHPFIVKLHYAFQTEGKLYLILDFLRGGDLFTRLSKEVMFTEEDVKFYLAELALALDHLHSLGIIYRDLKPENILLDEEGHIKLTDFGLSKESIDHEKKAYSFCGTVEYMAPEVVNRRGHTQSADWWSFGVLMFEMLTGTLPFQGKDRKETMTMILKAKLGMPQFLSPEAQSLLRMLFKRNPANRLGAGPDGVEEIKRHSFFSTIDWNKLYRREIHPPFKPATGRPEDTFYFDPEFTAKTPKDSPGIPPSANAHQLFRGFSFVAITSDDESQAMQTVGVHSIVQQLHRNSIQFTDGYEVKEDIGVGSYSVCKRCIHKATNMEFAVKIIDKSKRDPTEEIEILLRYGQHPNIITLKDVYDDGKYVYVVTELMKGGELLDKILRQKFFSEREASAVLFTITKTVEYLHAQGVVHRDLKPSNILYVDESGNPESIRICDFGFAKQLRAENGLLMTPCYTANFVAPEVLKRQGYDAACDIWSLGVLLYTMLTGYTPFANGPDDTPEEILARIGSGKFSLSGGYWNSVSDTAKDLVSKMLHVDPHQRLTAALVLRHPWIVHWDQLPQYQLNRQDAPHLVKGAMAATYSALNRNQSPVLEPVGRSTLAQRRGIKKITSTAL
WNK1 (human), sequence (Q9H4A3 whole entry, looked up): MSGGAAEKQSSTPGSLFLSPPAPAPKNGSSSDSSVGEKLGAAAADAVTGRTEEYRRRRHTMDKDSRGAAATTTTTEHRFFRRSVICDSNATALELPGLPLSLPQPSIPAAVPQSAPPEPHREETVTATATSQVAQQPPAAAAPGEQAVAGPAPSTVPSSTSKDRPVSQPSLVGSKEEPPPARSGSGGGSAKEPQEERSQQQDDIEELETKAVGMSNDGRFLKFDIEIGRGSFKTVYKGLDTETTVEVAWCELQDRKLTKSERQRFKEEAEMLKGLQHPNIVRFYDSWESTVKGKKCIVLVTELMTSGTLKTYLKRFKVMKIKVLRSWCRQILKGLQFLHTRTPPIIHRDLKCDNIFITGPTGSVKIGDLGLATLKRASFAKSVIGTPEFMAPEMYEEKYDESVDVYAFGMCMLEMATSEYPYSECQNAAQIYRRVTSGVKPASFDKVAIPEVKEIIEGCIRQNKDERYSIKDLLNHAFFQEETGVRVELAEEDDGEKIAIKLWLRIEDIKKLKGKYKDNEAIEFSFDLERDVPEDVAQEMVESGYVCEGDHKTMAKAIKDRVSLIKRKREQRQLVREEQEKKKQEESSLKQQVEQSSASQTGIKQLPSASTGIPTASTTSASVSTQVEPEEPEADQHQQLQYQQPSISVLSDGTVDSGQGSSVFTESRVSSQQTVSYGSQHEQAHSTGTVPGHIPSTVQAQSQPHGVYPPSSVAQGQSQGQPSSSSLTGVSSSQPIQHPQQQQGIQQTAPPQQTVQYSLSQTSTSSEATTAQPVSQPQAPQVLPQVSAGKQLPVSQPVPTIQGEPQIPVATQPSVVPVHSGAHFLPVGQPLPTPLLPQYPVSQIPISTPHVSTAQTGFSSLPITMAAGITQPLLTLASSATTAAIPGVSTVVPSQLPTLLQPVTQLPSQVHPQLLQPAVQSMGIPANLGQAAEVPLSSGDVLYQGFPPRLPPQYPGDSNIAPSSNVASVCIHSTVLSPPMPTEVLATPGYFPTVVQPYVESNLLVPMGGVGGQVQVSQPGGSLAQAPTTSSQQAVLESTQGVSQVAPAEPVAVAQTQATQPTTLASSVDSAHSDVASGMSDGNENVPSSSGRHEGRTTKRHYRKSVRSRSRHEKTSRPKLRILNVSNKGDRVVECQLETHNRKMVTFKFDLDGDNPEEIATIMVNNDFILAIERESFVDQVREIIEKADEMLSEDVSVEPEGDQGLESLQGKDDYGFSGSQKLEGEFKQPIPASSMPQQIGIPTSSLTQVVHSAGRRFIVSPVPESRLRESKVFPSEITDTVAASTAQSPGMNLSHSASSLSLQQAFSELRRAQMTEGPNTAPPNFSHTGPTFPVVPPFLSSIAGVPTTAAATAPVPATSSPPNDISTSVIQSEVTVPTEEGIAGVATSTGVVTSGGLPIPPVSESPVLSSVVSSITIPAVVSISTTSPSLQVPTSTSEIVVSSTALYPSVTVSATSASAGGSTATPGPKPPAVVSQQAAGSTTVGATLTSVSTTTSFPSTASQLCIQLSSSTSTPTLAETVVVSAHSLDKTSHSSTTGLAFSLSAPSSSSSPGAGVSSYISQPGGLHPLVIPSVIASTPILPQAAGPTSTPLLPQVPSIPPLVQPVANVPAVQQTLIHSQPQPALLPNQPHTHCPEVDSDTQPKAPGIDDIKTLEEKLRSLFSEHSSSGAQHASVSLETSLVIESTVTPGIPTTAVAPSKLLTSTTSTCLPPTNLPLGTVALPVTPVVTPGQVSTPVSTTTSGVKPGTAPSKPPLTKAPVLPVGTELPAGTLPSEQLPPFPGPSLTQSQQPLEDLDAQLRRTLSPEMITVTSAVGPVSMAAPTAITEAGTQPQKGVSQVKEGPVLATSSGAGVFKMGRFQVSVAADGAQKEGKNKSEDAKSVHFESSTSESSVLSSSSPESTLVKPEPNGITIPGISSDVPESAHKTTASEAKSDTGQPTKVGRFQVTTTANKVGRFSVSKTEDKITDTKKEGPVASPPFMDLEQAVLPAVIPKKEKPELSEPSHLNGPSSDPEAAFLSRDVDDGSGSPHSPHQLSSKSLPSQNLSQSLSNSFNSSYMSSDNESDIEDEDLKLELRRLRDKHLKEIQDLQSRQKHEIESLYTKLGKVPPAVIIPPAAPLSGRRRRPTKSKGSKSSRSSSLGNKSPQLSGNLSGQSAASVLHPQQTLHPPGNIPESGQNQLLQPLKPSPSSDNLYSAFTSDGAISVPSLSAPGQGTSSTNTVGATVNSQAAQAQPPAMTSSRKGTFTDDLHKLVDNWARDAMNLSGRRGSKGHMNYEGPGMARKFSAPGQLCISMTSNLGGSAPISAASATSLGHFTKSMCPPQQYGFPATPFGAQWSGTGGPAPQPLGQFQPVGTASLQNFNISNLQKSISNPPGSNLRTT
ABL1 (human), P00519 [F317I], sequence (P00519 whole entry F317I, looked up): as the sequence (P00519 whole entry F317L, looked up) above, with L317I counted along it

Compound | kinase still bound, per cent of control [1] [%] | kinase still bound, per cent of control [2] [%] | kinase still bound, per cent of control (NEK10 (human)) [%] | kinase still bound, per cent of control (WNK1 (human)) [%] | kinase still bound, per cent of control (RPS6KA3 KD2 (human)) [%] | kinase still bound, per cent of control (SGK1 (human)) [%]
COc1cc(C)c(Sc2cnc(NC(=O)c3ccc(CNC(C)C(C)C)cc3)s2)cc1C(=O)N1CCN(C(C)=O)CC1 (centres undefined) | 100 | 100 |  |  |  | 
COc1cc2ncnc(Nc3cccc(Cl)c3)c2cc1OC |  |  | 91 | 71 | 71 | 68
CNC(=O)Nc1ccc(-c2nc(N3CC4CCC(C3)O4)c3cnn(C4CCC5(CC4)OCCO5)c3n2)cc1 |  |  |  | 95 | 100 | 100
COc1cc(N2CCC(C(N)=O)CC2)ccc1Nc1nc(N)c(Cl)c(Nc2ccccc2S(=O)(=O)C(C)C)n1 | 4.8 | 12 |  |  |  | 
Cc1cn(-c2cc(C(=O)Nc3ccc(C)c(NC(=O)c4ccno4)c3)cc(C(F)(F)F)c2)cn1 | 0.95 | 1.4 |  |  |  | 
O=c1[nH]c2ccccc2n1C1CCN(Cc2ccc(-c3nc4cc5[nH]cnc5cc4nc3-c3ccccc3)cc2)CC1 |  |  | 78 | 89 | 100 | 71
CCOc1cc(N2CCC(O)CC2)ccc1Nc1ncc2c(n1)N(C)c1ccccc1C(=O)N2C | 30 | 100 |  |  |  | 
